What was measured:
[1] = test system: JAK/STAT target and cell cycle gene expression in HEL92.1.7 cells; assay: RNA expression profiling (RT-PCR, Affymetrix) in HEL92.1.7 cells; format: cell-based, human
Experimental: HEL92.1.7 cells were treated with DMSO, P6 (100 or 1000 nM) or ganetespib (25 or 250 nM) for 4 h or 24 h, and total RNA extracted using Trizol (Invitrogen). RNA was purified with the RNeasy kit (Qiagen, Hilden, Germany) and converted to cDNA via an iScript kit (BioRad, Hercules, Calif., USA). Oligonucleotide primers were purchased from SABiosciences (Frederick, Md., USA). PCR was done with iQ SYBR Green Supermix (Bio-Rad), and levels of the tested genes were normalized to HPRT expression using the comparative Ct method.
Biotinylated aRNA was generated by in vitro transcription using Affymetrix GeneChip Expression IVT labeling kit (Affymetrix, Santa Clara, Calif., USA). Fifteen micrograms of labeled aRNA was fragmented and hybridized to Affymetrix GeneChip Human Genome U133 Plus 2 arrays and scanned using a GeneChip Scanner (Affymetrix). Array data were analyzed with the Affymetrix Expression Console Software utilizing the MASS algorithm. In order to generate a threshold for identifying probe sets that have large differences between 1000 nM P6 (4 h) and 250 nM ganetespib (24 h) arrays and their controls in the absence of treatment replicates, data from four control arrays (DMSO only; two at 4 h, and two at 24 h) were used to create an expression level dependent fold-difference envelope that reflects the increasing measurement variability as expression level decreases. This envelope, used in lieu of a fixed fold-difference criteria, was formed by identifying the xth percentile expression-level difference (where x was large, typically 99.9%) at each mean expression level bin. To achieve this, data were used from the six possible comparisons from the four DMSO-only arrays. The resulting, smoothed threshold fold-difference envelope was then applied to the two compound-treated/control array pairs to identify those probe-sets that have large expression level differences between treatment and control. For hierarchical analysis, genes with greater than two fold changes in expression with 250 nM ganetespib were clustered using established algorithms in Cluster (49) and a subset visualized by TreeView.

[2] = test system: JAK2 signaling in DU145 cells; assay: Western blot of JAK/STAT proteins in DU145 cells; format: cell-based, human
Experimental: DU145 cells were dosed with graded concentrations of ganetespib for 24 h and cell lysates subject to western blot to determine JAK/STAT and target protein levels using the antibodies indicated.
DU145 cells were treated with DMSO (control, C), 15 nM, 60 nM or 240 nM ganetespib for either 24 or 48 h and lysates probed by western blot with the indicated antibodies.
(§1) Cells were disrupted in lysis buffer (CST) and solubilized in 2% SDS. Xenograft tumors (average volume of 100-200 mm3) were excised, cut in half, and flash frozen in liquid nitrogen. Each tumor fragment was lysed in 0.5 mL of lysis buffer using a FastPrep-24 homogenizer and Lysing Matrix A (MP Biomedicals, Solon, Ohio, USA) and lysates clarified by centrifugation. Equal amounts of proteins were resolved by SDS-PAGE and immunoblotted with indicated antibodies. The antigen-antibody complex was visualized and quantitated using an Odyssey system (LI-COR, Lincoln, Nebr., USA).

[3] = test system: JAK2/STAT signaling in NCI-H1975 cells; assay: Western blot of JAK/STAT and Hsp90 client proteins in NCI-H1975 cells; format: cell-based, human; conditions: 24 h
Experimental: NCI-H1975 cells were dosed with the indicated concentrations of ganetespib for 24 h and their cell lysates analyzed to determine JAK/STAT and Hsp90 client protein levels using the antibodies indicated.
as §1

[4] = test system: JAK/STAT signaling in SET-2 cells; assay: Western blot of JAK/STAT signaling in SET-2 cells; format: cell-based, human; conditions: 24 h
Experimental: SET-2 cells were dosed with the indicated concentrations of ganetespib or 17-AAG for 24 h and analyzed to determine JAK/STAT protein and target levels using the antibodies indicated.
as §1

[5] = test system: JAK2 dependent signaling in HEL92.1.7 cells; assay: Western blot of JAK/STAT signaling in HEL92.1.7 cells; format: cell-based, human
Experimental: FIG. 2 compares the more durable ganetespib durable inhibition of JAK/STAT signaling to P6. HEL92.1.7 cells were cultured in the presence of 250 nM Ganetespib or 1000 nM P6 and harvested at the indicated time points. The levels of JAK2, phosphorylated and total STAT3 and STAT5, phospho-AKT, phospho-ERK and GAPDH were determined by western blot.
as §1

MV4-11 xenografts = assay: MV4-11 acute myeloid leukemia xenograft model; format: in vivo, SCID mice
Experimental: Mice bearing established MV4-11 xenografts (100-200 mm3, n=8 mice/group) were i.v. dosed (arrowheads) with ganetespib at either 25 or 150 mg/kg once weekly for 3 weeks, or at the HNSTD of 25 mg/kg five-times per week, as indicated. % T/C values are indicated to the right of each growth curve and the error bars are the s.e.m.
Eight-week-old female immunodeficient CB-17/Icr-Prkdcscid/Crl (SCID) mice (Charles River Laboratories, Wilmington, Mass.) were maintained in a pathogen-free environment, and all in vivo procedures were approved by the Synta Pharmaceuticals Corp. Institutional Animal Care and Use Committee. For the MV4-11 model, tumor cells were subcutaneously implanted in SCID mice as previously described (34). Tumor volumes (V) were calculated by caliper measurements of the width (W), length (L), and thickness (T) of each tumor using the formula: V=0.5236 (LWT).
Animals with 100-200 mm^3 tumors were then randomized into treatment groups of 8 and i.v. dosed via the tail vein at 10 mL/kg body weight with either vehicle or ganetespib formulated in 10/18 DRD (10% DMSO, 18% Cremophor RH 40, 3.6% dextrose, 68.4% water). Tumor growth inhibition was monitored by tumor volume measurements twice weekly. As a measurement of in vivo efficacy, the % T/C value was determined from the change in average tumor volumes of each treated group relative to the vehicle-treated or itself in the case of tumor regression. Statistical significance was determined using a Kruskal-Wallis one-way ANOVA followed by the Tukey Test multiple comparison procedure.
For both models, studies were conducted at the highest non-severely toxic doses (NHSTDs) of 150 mg/kg ganetespib one-time per week or 25 mg/kg ganetespib 5×/week for 3 weeks based on prior tolerability studies conducted in non-tumor bearing mice.

CC(C)c1cc(-c2nnc(O)n2-c2ccc3c(ccn3C)c2)c(O)cc1O [ganetespib, 3-(2,4-dihydroxy-5-isopropyl-phenyl)-4-(1-methyl-indol-5-yl)-5-hydroxy-[1,2,4] triazole]
expression of cell cycle-related genes ([1]; 250 nM, 24 h): selectively altered the expression of a large set of genes involved in cell cycle-related activities | expression of heat shock protein genes ([1]; 250 nM, 24 h): up-regulation of numerous heat shock protein genes | expression of JAK/STAT target genes (SOCS and PIM family members) ([1]; 4 hour P6 (1000 nM), 24 hour ganetespib (250 nM)): downregulated | JAK1 kinase level ([2]; 15-240 nM, 24 or 48 h): not targeted for degradation | JAK2, phospho-STAT3 and phospho-SHP2 levels ([2]; 24 h): Loss of JAK2, phospho-STAT3 and phospho-SHP2 | AKT and GSK3β activity [3]: Inactivation of AKT and GSK3β | EGFR expression [3]: dose dependent decrease in EGFR expression | JAK2 and phosphorylated STAT3 levels [3]: potent degradation of JAK2 and loss of phosphorylated STAT3 in a dose-dependent manner | levels of phosphorylated BAD [3]: concomitant reduction in the levels of phosphorylated BAD | concentration able to destabilize JAK2 sufficiently to result in loss of activated (phosphorylated) STAT3 and STAT5 expression [4]: 50 nM | JAK2 and phospho-AKT protein levels [5]: targeted loss of JAK2 and phospho-AKT protein levels | duration of STAT signaling suppression compared to P6 [5]: suppressed STAT signaling longer | potency compared to P6, JAK/STAT inhibitory activity [5]: at least four-fold more potent | JAK2 dependent signaling (phospho-STAT3, phospho-STAT5, ERK signaling) ([5]; 250 nM ganetespib or 1000 nM P6): blocked JAK2 dependent signaling | tumor regression (MV4-11 xenografts; 25 mg/kg i.v. 5×/week for 3 weeks): 84% | tumor growth inhibition (MV4-11 xenografts; 25 or 150 mg/kg i.v. once weekly for 3 weeks): significant and dose dependent tumor growth inhibition | time tumor growth stayed suppressed once treatment was discontinued (MV4-11 xenografts; both dosing regimens): up to a week or more
